Among the data in ChEMBL document CHEMBL1143281, “New analogues of agmatine with higher affinity to imidazoline receptors” (Bioorg Med Chem Lett, 2009) are Ki and IC50 values, retold here.

The nature of assay [1]: Displacement of [3H]2BFI from imidazoline I2 receptor in Sprague-Dawley rat brain by liquid scintillation counting. (In a radioligand displacement assay an active substance lowers the binding of a labelled ligand.)
Assay [2] has as its target T1, Nischarin (Rattus norvegicus, UniProt Q4G017). The assay is described as follows: Displacement of [3H]clonidine from imidazoline I1 receptor in Sprague-Dawley rat kidney by liquid scintillation counting.
In assay [3] the target is T2, Adrenergic receptor alpha-2 (Rattus norvegicus, UniProt P22086+P19328+P22909).
T2 sequence (P22086 whole entry): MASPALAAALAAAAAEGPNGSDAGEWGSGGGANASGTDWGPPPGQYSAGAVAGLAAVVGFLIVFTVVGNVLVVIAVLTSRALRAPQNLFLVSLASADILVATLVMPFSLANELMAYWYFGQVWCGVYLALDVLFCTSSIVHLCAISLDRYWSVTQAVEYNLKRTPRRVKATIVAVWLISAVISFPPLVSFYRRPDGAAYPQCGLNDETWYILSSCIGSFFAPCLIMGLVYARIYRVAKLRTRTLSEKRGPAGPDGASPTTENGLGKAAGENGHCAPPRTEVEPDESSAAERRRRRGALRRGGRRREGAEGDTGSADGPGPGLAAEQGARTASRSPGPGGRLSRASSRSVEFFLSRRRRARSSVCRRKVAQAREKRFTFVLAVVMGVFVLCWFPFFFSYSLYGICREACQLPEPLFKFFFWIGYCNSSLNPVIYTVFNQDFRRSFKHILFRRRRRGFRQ
T2 sequence (P19328 whole entry): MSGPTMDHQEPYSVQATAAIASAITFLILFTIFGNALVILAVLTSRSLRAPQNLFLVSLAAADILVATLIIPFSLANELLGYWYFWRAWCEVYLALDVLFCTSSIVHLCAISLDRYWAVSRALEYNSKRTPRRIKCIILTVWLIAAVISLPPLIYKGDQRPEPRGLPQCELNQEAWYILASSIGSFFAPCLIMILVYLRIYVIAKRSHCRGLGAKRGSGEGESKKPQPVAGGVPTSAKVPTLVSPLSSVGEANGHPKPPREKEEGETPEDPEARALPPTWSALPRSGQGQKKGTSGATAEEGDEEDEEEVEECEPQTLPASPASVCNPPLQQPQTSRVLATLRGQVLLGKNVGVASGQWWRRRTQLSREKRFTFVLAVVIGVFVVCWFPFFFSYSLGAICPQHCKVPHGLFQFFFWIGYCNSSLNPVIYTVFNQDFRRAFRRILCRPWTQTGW
T2 sequence (P22909 whole entry): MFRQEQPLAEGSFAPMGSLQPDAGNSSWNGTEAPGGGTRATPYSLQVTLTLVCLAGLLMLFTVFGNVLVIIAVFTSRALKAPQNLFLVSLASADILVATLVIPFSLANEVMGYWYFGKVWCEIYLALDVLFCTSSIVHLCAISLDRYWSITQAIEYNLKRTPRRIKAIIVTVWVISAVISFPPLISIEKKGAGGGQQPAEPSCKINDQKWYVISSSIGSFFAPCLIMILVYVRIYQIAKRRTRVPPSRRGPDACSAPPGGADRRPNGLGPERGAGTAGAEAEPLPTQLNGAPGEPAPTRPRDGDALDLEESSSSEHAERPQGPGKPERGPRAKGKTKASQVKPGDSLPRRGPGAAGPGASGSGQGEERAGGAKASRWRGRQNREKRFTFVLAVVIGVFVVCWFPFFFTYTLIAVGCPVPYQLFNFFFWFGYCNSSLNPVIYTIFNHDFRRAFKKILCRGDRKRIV
The assay is described as follows: Displacement of [3H]RX821002 from alpha2 adrenoceptor in Sprague-Dawley rat kidney by liquid scintillation counting. Format: tissue-based.

A short description of assay [4]: Displacement of [3H]2BFI from imidazoline I2 receptor in Wistar rat brain by liquid scintillation counting.
Assay [5] concerns the target T1, Nischarin. The assay is described as follows: Displacement of [3H]clonidine from imidazoline I1 receptor in Wistar rat kidney by liquid scintillation counting.
For assay [6], the target named is T2, Adrenergic receptor alpha-2. The assay is described as follows: Displacement of [3H]RX821002 from alpha2 adrenoceptor in Wistar rat kidney by liquid scintillation counting. Format: tissue-based.

T1 sequence (Q4G017 whole entry): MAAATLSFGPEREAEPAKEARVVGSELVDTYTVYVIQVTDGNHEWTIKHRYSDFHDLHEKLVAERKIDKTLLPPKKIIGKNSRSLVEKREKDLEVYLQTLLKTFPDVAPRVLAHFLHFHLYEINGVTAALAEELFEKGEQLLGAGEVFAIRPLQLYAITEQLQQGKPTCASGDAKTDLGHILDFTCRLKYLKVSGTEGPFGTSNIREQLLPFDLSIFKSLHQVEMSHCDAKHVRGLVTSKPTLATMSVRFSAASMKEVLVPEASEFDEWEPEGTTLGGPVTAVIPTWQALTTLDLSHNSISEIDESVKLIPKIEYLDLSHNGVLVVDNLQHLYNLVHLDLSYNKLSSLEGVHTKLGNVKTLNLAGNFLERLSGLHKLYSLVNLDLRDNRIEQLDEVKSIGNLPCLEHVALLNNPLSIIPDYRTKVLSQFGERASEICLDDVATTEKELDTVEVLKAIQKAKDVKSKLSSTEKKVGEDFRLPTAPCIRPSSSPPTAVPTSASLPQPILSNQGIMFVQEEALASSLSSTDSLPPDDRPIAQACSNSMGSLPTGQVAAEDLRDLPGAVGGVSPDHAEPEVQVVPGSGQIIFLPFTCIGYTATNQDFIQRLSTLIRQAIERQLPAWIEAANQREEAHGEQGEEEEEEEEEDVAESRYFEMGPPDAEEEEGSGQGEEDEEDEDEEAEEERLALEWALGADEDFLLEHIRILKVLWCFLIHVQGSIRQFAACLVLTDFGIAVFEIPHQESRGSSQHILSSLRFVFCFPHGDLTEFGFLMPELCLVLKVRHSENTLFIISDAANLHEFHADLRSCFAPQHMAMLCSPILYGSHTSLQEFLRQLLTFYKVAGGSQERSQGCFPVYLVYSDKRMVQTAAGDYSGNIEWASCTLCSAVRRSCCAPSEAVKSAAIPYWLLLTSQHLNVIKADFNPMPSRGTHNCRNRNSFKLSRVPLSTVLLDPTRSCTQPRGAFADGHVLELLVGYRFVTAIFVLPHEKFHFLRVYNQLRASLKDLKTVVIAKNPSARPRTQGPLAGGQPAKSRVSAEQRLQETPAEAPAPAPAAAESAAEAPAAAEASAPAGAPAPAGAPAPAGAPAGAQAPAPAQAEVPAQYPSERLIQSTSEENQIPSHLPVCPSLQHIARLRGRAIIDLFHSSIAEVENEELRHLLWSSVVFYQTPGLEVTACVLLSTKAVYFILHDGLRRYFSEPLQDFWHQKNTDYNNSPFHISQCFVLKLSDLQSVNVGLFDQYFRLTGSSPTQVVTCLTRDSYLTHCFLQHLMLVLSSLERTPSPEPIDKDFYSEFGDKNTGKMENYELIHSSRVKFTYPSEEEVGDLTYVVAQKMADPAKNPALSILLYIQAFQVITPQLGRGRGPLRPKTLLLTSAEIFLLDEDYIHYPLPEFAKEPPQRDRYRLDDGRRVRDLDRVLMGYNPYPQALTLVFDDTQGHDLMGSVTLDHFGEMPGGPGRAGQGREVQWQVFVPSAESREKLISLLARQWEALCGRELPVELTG

A word on the Ki: it is a measure of affinity in units of concentration, obtained from inhibition or displacement. The IC50 is the midpoint of a concentration-inhibition curve. On to `Br.CN(C)CC[C@H]1CN=C(N)N1`, for which the Ki in assay [1] was > 100 µM; in assay [3] it was > 52.86 µM. Also, the IC50 at Nischarin [2] amounted to 44.8 µM.
For `Br.CC(=O)NCC[C@@H]1CN=C(N)N1`, the Ki in assay [1] and in assay [3] was > 100 µM in each case. This compound also came in with an IC50 on Nischarin [2] of 383 µM.
With `NCCCCN=C(N)N` [AGMATINE], the Ki in assay [4] worked out at 417 µM; in assay [6] it was 31.7 µM. Besides, on Nischarin [5], the IC50 came out at 36.5 µM.
With `CN(C)CC[C@H]1CN=CN1.Cl.Cl`, the inhibitory constant (Ki) in assay [1] and in assay [3] was > 100 µM in each case. Further, the half-maximal inhibitory concentration (IC50) on Nischarin [2] amounted to 64 µM.
For `Br.NCC[C@@H]1CN=C(N)N1`, the Ki was > 100 µM in assay [1] and 18.82 µM in assay [3]. In addition, the IC50 at Nischarin [2] is > 100 µM.
Turning to `Br.NCC[C@H]1CN=CN1`, the Ki in assay [1] is 65.8 µM; in assay [3] it was > 100 µM. Moreover, the 50% inhibitory concentration (IC50) at Nischarin [2] was > 100 µM.
Take `Clc1cccc(Cl)c1NC1=NCCN1` [CLONIDINE]: the Ki in assay [1] came out at 0.364 µM. Also, the IC50 on Nischarin [2] was found to be 0.366 µM.
For `Br.CC1=NC[C@H](CCN)N1`, the Ki came out at 1.84 µM in assay [1] and 76.44 µM in assay [3]. The IC50 at Nischarin [2] was determined as 115 µM.
In the same order, the values of `Br.NCC[C@@H]1CN=CN1` are > 100 µM, 62.07 µM and 16.5 µM.
In the case of `Br.CC(=O)NCC[C@H]1CN=C(N)N1`, the Ki in assay [1] and in assay [3] was > 100 µM throughout. This compound returned an IC50 on Nischarin [2] of 235 µM.
`CC(=O)NCC[C@H]1CN=CN1.CC(=O)O`: the Ki in assay [1] and in assay [3] was > 100 µM throughout. On Nischarin [2], this compound gave an IC50 of 213 µM.
As to `Br.NCC[C@H]1CN=C(N)N1`, the values for the Ki in assay [1] and in assay [3] were 55 µM and 11.77 µM, respectively. The IC50 at Nischarin [2] was 0.477 µM.
